From patent US7452887B2, “Quinoline- and isoquinoline-based compounds exhibiting ATP-utilizing enzyme inhibitory activity, and compositions, and uses thereof” (Amphora Discovery Corporation, priority 2004, dated 2008)
One block for each compound: values may come before it.

Legend:
Experiment in all cases: HTS ATP-utilizing enzyme assay, off-chip mobility-shift (Caliper HTS 250)
Format in all cases: biochemical
Settings in all cases: test compound 10 μM, kinase listed = active (greater than six-sigma from the mean activity of inactive compounds)
ROCK2 = ROCK2 (Homo sapiens, UniProt O75116)
Procedure, shortened: (§1)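 Test compound at 10 μM final was incubated with kinase and peptide substrate in HEPES pH 7.5 buffer with Triton X-100 and BSA for 2.5 hrs at 20° C. to 22° C., then stopped with EDTA. Inhibition came from the substrate-to-phosphorylated-product ratio on a microfluidic mobility-shift read. EDTA wells served as 100% control.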

GSK3-α = GSK3-α (Homo sapiens, UniProt P49840)
Procedure, shortened: as §1

C-TAK1 = C-TAK1 (Homo sapiens, UniProt P27448)
Procedure, shortened: as §1

CDK1/cyclin B = CDK1/cyclin B (Homo sapiens, UniProt P06493)
Procedure, shortened: as §1

PDGFR-α = PDGFR-α (Homo sapiens, UniProt P16234)
Procedure, shortened: as §1

BMX = molecular target: T1, BMX (Homo sapiens, UniProt P51813)
T1 sequence (P51813 1-675): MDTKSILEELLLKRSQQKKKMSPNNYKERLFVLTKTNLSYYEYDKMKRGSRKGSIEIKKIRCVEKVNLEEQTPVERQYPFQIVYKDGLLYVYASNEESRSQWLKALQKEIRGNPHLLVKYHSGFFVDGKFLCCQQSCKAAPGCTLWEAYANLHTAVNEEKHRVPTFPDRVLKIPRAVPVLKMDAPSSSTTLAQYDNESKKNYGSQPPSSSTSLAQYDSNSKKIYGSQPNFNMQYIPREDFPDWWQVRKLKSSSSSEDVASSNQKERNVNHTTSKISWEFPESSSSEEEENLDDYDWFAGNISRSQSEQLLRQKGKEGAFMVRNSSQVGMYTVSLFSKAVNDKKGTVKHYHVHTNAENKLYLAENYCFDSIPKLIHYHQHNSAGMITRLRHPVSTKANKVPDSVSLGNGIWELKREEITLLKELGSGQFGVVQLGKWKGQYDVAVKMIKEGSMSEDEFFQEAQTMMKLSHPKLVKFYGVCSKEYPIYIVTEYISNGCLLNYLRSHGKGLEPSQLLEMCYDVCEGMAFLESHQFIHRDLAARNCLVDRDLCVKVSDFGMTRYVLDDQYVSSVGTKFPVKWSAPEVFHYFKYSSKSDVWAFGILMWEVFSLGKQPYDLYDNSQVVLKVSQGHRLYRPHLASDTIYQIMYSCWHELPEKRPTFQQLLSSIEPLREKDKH
Procedure, shortened: as §1

LYNA = LYNA (Homo sapiens, UniProt P07948)
Procedure, shortened: as §1

LCK = LCK (Homo sapiens, UniProt P06239)
Procedure, shortened: as §1

CHEK2 = CHEK2 (Homo sapiens, UniProt O96017)
Procedure, shortened: as §1

AKT3 = AKT3 (Homo sapiens, UniProt Q9Y243)
Procedure, shortened: as §1

SYK = SYK (Homo sapiens, UniProt P43405)
Procedure, shortened: as §1

PKA = PKA (Homo sapiens, UniProt P17612)
Procedure, shortened: as §1

MSK1 = MSK1 (Homo sapiens, UniProt O75582)
Procedure, shortened: as §1

Sequence of C-TAK1 (P27448 whole entry): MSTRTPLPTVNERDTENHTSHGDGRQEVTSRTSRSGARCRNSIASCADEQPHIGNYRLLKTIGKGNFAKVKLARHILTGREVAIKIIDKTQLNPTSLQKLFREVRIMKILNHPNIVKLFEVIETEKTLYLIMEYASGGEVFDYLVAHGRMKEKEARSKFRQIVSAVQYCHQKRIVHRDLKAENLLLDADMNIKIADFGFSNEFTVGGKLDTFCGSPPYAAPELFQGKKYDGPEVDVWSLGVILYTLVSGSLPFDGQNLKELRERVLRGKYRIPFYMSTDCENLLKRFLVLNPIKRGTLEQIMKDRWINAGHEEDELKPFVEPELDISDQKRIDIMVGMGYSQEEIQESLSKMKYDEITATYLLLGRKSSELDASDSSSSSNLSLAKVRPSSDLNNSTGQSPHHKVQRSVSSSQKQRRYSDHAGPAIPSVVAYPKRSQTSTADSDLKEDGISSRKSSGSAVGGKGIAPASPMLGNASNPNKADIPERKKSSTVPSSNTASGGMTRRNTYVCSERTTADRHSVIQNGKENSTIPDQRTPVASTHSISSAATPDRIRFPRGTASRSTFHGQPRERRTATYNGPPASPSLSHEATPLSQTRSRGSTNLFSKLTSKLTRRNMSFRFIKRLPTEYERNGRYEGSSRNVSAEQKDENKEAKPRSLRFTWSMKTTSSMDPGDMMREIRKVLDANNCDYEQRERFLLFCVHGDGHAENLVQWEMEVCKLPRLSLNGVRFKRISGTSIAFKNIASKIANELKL
Sequence of LYNA (P07948 whole entry): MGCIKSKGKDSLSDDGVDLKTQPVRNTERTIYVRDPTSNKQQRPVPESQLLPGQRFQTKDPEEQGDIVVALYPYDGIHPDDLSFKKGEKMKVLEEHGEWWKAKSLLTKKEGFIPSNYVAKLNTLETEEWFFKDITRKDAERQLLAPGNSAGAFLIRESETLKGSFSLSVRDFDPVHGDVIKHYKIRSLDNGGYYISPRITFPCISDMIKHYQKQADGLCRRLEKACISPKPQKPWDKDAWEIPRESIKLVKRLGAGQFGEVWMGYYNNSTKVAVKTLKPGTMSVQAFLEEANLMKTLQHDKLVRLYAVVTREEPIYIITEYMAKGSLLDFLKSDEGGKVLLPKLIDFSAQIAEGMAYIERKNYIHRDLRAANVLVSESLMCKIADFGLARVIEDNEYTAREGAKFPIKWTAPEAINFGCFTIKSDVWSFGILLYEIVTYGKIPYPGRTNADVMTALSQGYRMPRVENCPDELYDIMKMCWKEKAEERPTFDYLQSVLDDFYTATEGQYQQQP
Sequence of CDK1/cyclin B (P06493 whole entry): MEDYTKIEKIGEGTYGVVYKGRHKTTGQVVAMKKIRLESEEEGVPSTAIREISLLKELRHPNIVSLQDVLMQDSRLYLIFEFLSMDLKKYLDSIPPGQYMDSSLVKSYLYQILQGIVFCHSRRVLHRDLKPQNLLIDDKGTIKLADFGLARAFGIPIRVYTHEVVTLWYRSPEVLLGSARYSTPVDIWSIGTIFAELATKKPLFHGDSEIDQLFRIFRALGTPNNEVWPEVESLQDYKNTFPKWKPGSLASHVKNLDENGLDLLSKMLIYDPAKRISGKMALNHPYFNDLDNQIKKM
Sequence of CDK1/cyclin B (P14635 whole entry partner): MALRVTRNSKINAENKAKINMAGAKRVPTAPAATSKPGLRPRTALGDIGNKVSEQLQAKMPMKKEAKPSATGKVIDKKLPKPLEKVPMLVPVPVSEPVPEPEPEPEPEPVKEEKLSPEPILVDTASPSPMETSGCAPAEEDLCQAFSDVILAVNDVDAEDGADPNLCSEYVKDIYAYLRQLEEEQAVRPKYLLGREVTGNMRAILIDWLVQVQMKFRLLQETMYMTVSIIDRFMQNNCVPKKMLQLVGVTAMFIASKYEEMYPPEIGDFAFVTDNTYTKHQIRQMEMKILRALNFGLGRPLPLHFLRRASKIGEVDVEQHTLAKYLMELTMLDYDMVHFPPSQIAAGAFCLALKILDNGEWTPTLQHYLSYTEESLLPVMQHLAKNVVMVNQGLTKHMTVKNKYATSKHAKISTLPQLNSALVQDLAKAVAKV
Sequence of GSK3-α (P49840 whole entry): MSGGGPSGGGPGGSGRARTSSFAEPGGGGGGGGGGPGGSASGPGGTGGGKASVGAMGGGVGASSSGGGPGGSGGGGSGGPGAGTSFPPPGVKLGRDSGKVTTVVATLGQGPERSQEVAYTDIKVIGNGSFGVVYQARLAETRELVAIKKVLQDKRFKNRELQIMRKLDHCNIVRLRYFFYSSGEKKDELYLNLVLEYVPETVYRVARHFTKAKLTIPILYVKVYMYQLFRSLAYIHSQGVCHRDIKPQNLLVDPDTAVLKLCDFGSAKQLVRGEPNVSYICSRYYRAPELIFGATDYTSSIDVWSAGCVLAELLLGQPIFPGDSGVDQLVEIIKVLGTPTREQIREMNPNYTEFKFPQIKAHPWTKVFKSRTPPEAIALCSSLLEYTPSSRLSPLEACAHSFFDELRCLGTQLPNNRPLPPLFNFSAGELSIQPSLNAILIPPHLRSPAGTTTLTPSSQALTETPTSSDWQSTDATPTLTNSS
Sequence of PDGFR-α (P16234 24-1089): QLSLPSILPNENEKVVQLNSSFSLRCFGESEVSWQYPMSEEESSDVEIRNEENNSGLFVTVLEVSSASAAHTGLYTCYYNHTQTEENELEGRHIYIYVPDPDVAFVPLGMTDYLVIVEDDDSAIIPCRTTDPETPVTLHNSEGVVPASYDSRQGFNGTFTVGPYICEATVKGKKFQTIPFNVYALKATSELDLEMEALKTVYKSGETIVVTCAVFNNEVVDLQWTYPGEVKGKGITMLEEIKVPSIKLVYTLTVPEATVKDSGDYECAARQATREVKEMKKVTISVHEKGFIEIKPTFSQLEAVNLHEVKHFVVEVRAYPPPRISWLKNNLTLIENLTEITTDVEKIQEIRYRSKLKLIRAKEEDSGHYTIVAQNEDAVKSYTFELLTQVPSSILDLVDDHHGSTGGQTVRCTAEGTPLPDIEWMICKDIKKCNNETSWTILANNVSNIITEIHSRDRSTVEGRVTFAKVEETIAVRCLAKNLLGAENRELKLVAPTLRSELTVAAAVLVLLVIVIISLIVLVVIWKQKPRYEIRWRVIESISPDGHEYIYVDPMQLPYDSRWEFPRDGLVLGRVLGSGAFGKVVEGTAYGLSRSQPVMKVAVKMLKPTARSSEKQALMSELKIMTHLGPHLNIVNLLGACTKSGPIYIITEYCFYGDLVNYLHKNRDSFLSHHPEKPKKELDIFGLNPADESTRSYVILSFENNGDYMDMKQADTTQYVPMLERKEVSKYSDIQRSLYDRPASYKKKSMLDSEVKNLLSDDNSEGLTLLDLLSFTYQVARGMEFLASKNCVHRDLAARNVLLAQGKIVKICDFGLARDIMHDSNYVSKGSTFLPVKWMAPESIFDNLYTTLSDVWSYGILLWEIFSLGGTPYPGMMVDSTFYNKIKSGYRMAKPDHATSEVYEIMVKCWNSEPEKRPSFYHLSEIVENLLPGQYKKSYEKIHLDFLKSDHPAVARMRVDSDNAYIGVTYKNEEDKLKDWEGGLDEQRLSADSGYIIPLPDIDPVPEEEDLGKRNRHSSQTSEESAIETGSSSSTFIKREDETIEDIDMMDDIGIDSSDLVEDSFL
Sequence of CHEK2 (O96017 whole entry): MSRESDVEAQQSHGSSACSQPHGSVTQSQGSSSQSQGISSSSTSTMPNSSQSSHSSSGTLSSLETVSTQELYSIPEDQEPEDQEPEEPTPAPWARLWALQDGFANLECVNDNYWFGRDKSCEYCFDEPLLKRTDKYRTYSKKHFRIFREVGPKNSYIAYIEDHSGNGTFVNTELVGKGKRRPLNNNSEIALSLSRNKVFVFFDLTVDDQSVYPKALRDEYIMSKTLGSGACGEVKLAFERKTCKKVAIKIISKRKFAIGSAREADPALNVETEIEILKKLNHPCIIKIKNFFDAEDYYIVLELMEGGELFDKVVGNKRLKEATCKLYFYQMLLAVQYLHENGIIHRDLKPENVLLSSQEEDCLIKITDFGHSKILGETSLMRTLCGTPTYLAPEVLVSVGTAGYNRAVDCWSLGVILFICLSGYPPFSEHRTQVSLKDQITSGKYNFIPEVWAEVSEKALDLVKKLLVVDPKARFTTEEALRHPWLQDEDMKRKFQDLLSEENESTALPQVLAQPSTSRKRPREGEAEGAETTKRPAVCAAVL
Sequence of AKT3 (Q9Y243 whole entry): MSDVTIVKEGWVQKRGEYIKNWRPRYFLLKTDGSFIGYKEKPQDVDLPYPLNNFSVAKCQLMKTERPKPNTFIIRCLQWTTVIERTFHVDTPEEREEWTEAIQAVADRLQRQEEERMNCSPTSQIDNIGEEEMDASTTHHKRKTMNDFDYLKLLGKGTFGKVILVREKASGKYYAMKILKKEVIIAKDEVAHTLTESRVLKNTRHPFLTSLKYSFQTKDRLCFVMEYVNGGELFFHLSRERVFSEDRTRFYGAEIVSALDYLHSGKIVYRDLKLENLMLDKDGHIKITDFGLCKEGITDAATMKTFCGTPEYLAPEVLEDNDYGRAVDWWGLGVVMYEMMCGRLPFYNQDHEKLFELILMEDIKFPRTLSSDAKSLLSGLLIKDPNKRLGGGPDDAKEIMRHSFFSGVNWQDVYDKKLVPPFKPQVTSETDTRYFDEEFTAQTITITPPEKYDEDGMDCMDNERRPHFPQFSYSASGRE

SMILES: CN1CCN(c2ccc(Nc3ccnc4ccc(-c5ccc(O)cc5)cc34)cc2)CC1 [4-(4-(4-(4-methylpiperazin-1-yl)phenylamino)quinolin-6-yl)phenol]
Activity (ROCK2): ROCK2

SMILES: COc1ccc(-c2ccc3nccc(Nc4ccc(N5CCNCC5)cc4)c3c2)cc1 [6-(4-methoxyphenyl)-N-(4-(piperazin-1-yl)phenyl)quinolin-4-amine]
Activity (CDK1/cyclin B): CDK1/cyclin B

SMILES: COc1ccc(-c2ccc3nccc(N(C)c4ccc(N5CCN(C)CC5)cc4)c3c2)cc1 [6-(4-methoxyphenyl)-N-methyl-N-(4-(4-methylpiperazin-1-yl)phenyl)quinolin-4-amine]
Activity (PDGFR-α): PDGFR-α
Activity (BMX): BMX

SMILES: c1ccc(-c2ccc3nccc(Nc4ccc(N5CCNCC5)cc4)c3c2)cc1 [6-phenyl-N-(4-(piperazin-1-yl)phenyl)quinolin-4-amine]
Activity (PDGFR-α): PDGFR-α
Activity (LYNA): LYNA

SMILES: CN1CCN(c2ccc(Nc3ccnc4ccc(-c5ccncc5)cc34)cc2)CC1 [N-(4-(4-methylpiperazin-1-yl)phenyl)-6-(pyridin-4-yl)quinolin-4-amine]
Activity (GSK3-α): GSK-3-α
Activity (PKA): PKA
Activity (MSK1): MSK1
Activity (ROCK2): ROCK2
Activity (AKT3): AKT3

The remaining lines, values ahead:

Activity (GSK3-α): GSK3-α
Activity (C-TAK1): C-TAK1
SMILES: CN1CCN(c2ccc(Nc3ccnc4ccc(-c5ccc(F)cc5)cc34)cc2)CC1 [6-(4-fluorophenyl)-N-(4-(4-methylpiperazin-1-yl)phenyl)quinolin-4-amine]

Activity (LCK): LCK
Activity (BMX): BMX
Activity (CHEK2): CHEK2
Activity (AKT3): AKT3
Activity (C-TAK1): C-TAK1
Activity (CDK1/cyclin B): CDK1/cyclin B
Activity (SYK): SYK
Activity (LYNA): LYNA
SMILES: CN1CCN(c2ccc(Nc3ccnc4ccc(-c5cccc6ccccc56)cc34)cc2)CC1 [N-(4-(4-methylpiperazin-1-yl)phenyl)-6-(naphthalen-1-yl)quinolin-4-amine]

Activity (BMX): BMX
Activity (CHEK2): CHEK2
Activity (C-TAK1): C-TAK1
Activity (SYK): SYK
SMILES: CN1CCN(c2ccc(Nc3ccnc4ccc(-c5ccc6ccccc6c5)cc34)cc2)CC1 [N-(4-(4-methylpiperazin-1-yl)phenyl)-6-(naphthalen-2-yl)quinolin-4-amine]

Activity (BMX): BMX
SMILES: Cc1ccccc1-c1ccc2nccc(Nc3ccc(N4CCN(C)CC4)cc3)c2c1 [N-(4-(4-methylpiperazin-1-yl)phenyl)-6-o-tolylquinolin-4-amine]
